Test results: patent publication US20120082706A1, “MEDICAL DEVICE FOR DRUG DELIVERY” (TERUMO KABUSHIKI KAISHA, priority 2009, published 2012)

Assay: Differential scanning calorimetry (DSC) of drug/compound mixtures (solid solution screening)
Type: physicochemical
Experimental: For the purpose of screening adequate solid dispersions, several exemplary mixtures were prepared, each composed of paclitaxel and a compound of different kind, and these mixtures underwent differential scanning calorimetry (DSC) using a differential scanning calorimeter.
The paclitaxel is a product of SIGMA Corp.
The thus prepared solution was completely freed of ethanol or acetone by vacuum drying. The resulting dry product was placed in an aluminum pan and thereafter underwent DSC in a nitrogen atmosphere at a heating rate of 10° C./min.
For the purpose of observing the properties of the solid solution of HSPC and a drug other than paclitaxel, there were prepared a mixture of HSPC and sirolimus and a mixture of HSPC and simvastatin, as shown in Table 5 below.

endothermic peak due to fusion of paclitaxel (DSC thermogram): gave an endothermic peak
Peak due to fusion of paclitaxel (DSC, nitrogen atmosphere, 10° C./min, 10 mg compound + 10 mg paclitaxel, dried from ethanol or acetone): Yes
Structure (SMILES): CC(=O)O[C@H]1C(=O)[C@@]2(C)[C@H]([C@H](OC(=O)c3ccccc3)[C@]3(O)C[C@H](OC(=O)[C@H](O)[C@@H](NC(=O)c4ccccc4)c4ccccc4)C(C)=C1C3(C)C)[C@]1(OC(C)=O)CO[C@@H]1C[C@@H]2O [Comparative Example 4, paclitaxel]
